One block for each compound: values may come before it.
Columns and labels:
[1] = Later pharmaceutical research on the trifluoroacetate freeze-dried amorphous compound of WO2019149183A1 (solid-state properties); assay type: physicochemical
PD-1/PD-L1 = PD-1/PD-L1 (Homo sapiens, UniProt Q9NZQ7); details: statement of the background, WO2019149183A1; cited from earlier work
T cells = details: statement of the background, WO2019149183A1; cited from earlier work
[2] = Stability determination (thermal stability and photostability, HPLC purity, appearance, XRPD); assay type: physicochemical; details: for XRPD: crystalline form found
Procedure: (§1) The stability and solubility of the crystalline free form of the compound of formula (I) or the basic salt thereof of the present application were determined by HPLC.
An appropriate amount of the sample was placed in a vial and left to stand at 50 °C, 80 °C or 50 °C & 75% RH (open) for 7 days to evaluate thermal stability. An appropriate amount of the sample was placed in a transparent vial, […] evaluation under conditions of overall near-ultraviolet energy of 1.2 * 10^6 Lux·hr and no less than 200 W·hr/m2.

[3] = Solubility determination (equilibrium solubility, 24 hrs stirring at room temperature, HPLC); assay type: physicochemical; details: for Equilibrium solubility: target concentration 2000 µg/mL, 24 hrs; for pH24 hrs: pH of the filtrate after 24 hrs
Procedure: as §1
The desired amount of the compound was weighed into a glass vial, and the desired amount of a vehicle was added. A stir bar was added to the vial, and the mixture was stirred at room temperature for 24 hrs. After 24 hrs, the appearance of the sample was observed. An appropriate amount of the sample was filtered through a PVDF 0.45 µm filter membrane, and the filtrate was collected. The pH value of the filtrate was determined, and the sample was diluted with MeOH. The diluted sample was injected into an HPLC system to determine the concentration.

[4] = Hygroscopic behavior test by dynamic vapor sorption (DVS); assay type: physicochemical; details: for hygroscopicity (in words): DVS, 25 °C
From the text: The experimental method of characterizing the crystalline free form of the compound of formula (I) or the basic salt thereof using dynamic vapor sorption (DVS) is as follows: a small amount of the crystalline sample was placed in a precision sample tray that was compatible with the instrument; after the sample was loaded, the sample tray was placed into the instrument for analysis. In this patent, the instruments used for dynamic vapor sorption were all the DVS Intrinsic plus model, and the following experimental parameters were set: nitrogen was used as the carrier gas, a constant temperature of 25 °C was set, the rate of mass percentage change over a unit of time (dm/dt) = 0.002%/min was used as a criterion for determining if equilibrium is reached, and the program humidity change cycle was set to 50-95-0-95-50% RH; within the range of 0-90% RH, a change of 10% RH was taken as a step, and within the range of 90% RH-95% RH, a change of 5% RH was taken as a step.
In the present invention, the hygroscopic weight increases (hygroscopic weight increase/weight before hygroscopy * 100%) of various crystalline forms under various relative humidity conditions were determined using the dynamic vapor sorption method, and the hygroscopicity of different crystalline compounds was evaluated.

[5] = Aluminum foil light exposure control, 9.2 days
[6] = Transparent light exposure, 9.2 days
[7] = pH 4.7, 50 mM acetic acid buffer
[8] = pH 6.8, 50 mM phosphoric acid buffer

Sequence of PD-1/PD-L1 (Q9NZQ7 19-238 limits assumed): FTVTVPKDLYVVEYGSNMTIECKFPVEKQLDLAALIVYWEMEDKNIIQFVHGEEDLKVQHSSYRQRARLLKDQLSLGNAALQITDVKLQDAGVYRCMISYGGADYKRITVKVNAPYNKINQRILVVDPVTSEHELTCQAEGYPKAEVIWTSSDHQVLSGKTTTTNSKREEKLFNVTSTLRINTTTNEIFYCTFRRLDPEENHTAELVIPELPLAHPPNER

hygroscopicity (in words) [1]: very hygroscopic
solubility (in words) [1]: poor solubility
SMILES: Cc1c(NC(=O)c2cc(C3CC3)c(CN3CCCC[C@H]3C(=O)O)cn2)cccc1-c1cccc(NC(=O)c2cc(C3CC3)c(CN3CCCC[C@H]3C(=O)O)cn2)c1C [compound of formula (I), (2S,2'S)-1,1'-(((((2,2'-dimethyl-[1,1'-biphenyl]-3,3'-diyl)bis(azanediyl))bis(carbonyl))bis(4-cyclopropylpyridine-6,3-diyl))bis(methylene))bis(piperidine-2-carboxylic acid)]
inhibitory effect on the protein interaction of PD-1/PD-L1 (PD-1/PD-L1): strong inhibitory effect
activation of T cells at the cellular level (T cells): enhance or restore the activation of T cells

Appearance ([2]; 50 °C, 7 days): White powder
Purity (%) ([2]; 50 °C, 7 days): 98.13%
Appearance ([2]; 50 °C/75%RH, 7 days): White powder
Purity (%) ([2]; 50 °C/75%RH, 7 days): 98.24%
Appearance ([2]; 80 °C, 7 days): White powder
Purity (%) ([2]; 80 °C, 7 days): 97.22%
Appearance [2, 5]: White powder
Purity (%) [2, 5]: 98.26%
Appearance ([2]; Initial, 0 days): White powder
Purity (%) ([2]; Initial, 0 days): 98.17%
Appearance [2, 6]: White powder
Purity (%) [2, 6]: 96.06%
XRPD ([2]; 50 °C, 7 days): Free-form crystalline form D
XRPD ([2]; 50 °C/75%RH, 7 days): Free-form crystalline form D
XRPD ([2]; 80 °C, 7 days): Free-form crystalline form D
XRPD [2, 5]: Free-form crystalline form D
XRPD ([2]; Initial, 0 days): Free-form crystalline form D
XRPD [2, 6]: Free-form crystalline form D
Equilibrium solubility ([3]; FaSSGF): 87.01 µg/mL
Equilibrium solubility ([3]; FaSSIF): 78.44 µg/mL
Equilibrium solubility ([3]; FeSSIF): 433.75 µg/mL
Equilibrium solubility ([3]; Water, room temperature): 51.93 µg/mL
Equilibrium solubility ([3]; pH 1.2, HCl 100 mM): 281.84 µg/mL
Equilibrium solubility [3, 7]: 47.41 µg/mL
Equilibrium solubility [3, 8]: 42.11 µg/mL
pH24 hrs ([3]; FaSSGF): 1.57
pH24 hrs ([3]; FaSSIF): 6.43
pH24 hrs ([3]; FeSSIF): 4.94
pH24 hrs ([3]; Water): 5.82
pH24 hrs ([3]; pH 1.2, HCl 100 mM): 1.16
pH24 hrs [3, 7]: 4.73
pH24 hrs [3, 8]: 6.90
solubility (in words) ([3]; various pH conditions, buffers and biological medium solutions): significantly improved solubility
hygroscopicity (in words) [4]: moderate hygroscopicity
hygroscopicity (in words) ([4]; listed as crystalline form D): moderately hygroscopic
Hygroscopic weight increase (%) ([4]; Relative humidity 0.0 % at 25 °C): 0.00%
Hygroscopic weight increase (%) ([4]; Relative humidity 10.0 % at 25 °C): 0.40%
Hygroscopic weight increase (%) ([4]; Relative humidity 20.0 % at 25 °C): 0.85%
Hygroscopic weight increase (%) ([4]; Relative humidity 30.0 % at 25 °C): 1.34%
Hygroscopic weight increase (%) ([4]; Relative humidity 40.0 % at 25 °C): 1.85%
Hygroscopic weight increase (%) ([4]; Relative humidity 50.0 % at 25 °C): 2.30%
Hygroscopic weight increase (%) ([4]; Relative humidity 60.0 % at 25 °C): 2.76%
Hygroscopic weight increase (%) ([4]; Relative humidity 70.0 % at 25 °C): 3.25%
Hygroscopic weight increase (%) ([4]; Relative humidity 80.0 % at 25 °C): 3.79%
Hygroscopic weight increase (%) ([4]; Relative humidity 90.0 % at 25 °C): 4.58%
crystalline form changes after DVS testing ([4]; after DVS testing): no crystalline form changes
SMILES: Cc1c(NC(=O)c2cc(C3CC3)c(CN3CCCC[C@H]3C(=O)O)cn2)cccc1-c1cccc(NC(=O)c2cc(C3CC3)c(CN3CCCC[C@H]3C(=O)O)cn2)c1C [free-form crystalline form D, (2S,2'S)-1,1'-(((((2,2'-dimethyl-[1,1'-biphenyl]-3,3'-diyl)bis(azanediyl))bis(carbonyl))bis(4-cyclopropylpyridine-6,3-diyl))bis(methylene))bis(piperidine-2-carboxylic acid)]
physical and chemical stability (in words) ([2]; 50 °C, 50 °C/75% RH (open), 80 °C for 7 days and photostress for 10 days): extremely high physical and chemical stability
